From US7622488B2, “Use of a pyrazole derivative for preparing medicines useful for treating renal diseases” (sanofi-aventis, priority 2005, dated 2009)

Legend:
Zucker fa/fa obese rats = assay: Long-term treatment (12 months) of Zucker fa/fa obese rats with established obesity; protection of renal function; format: in vivo; conditions: for mortality: after 12 months, untreated obese rats 64%
Procedure: The Zucker obese rat strain fa/fa is characterized by hyperphagia, obesity, dyslipidemia aid type 2 diabetes resulting in the gradual development of a nephropathy.
A group of Zucker fa/fa obese rats that were not treated, but received the same amount of food as the group treated with 10 mg/kg/day per os, was also formed (pair-fed group).

obese patients = conditions: clinical studies, cited from earlier work
[1] = Zucker fa/fa obese rats, 3 and 10 mg/kg/day per os for 12 months, vs vehicle
[2] = after 12 months of treatment, 3 and 10 mg/kg/day

## Cc1c(C(=O)NN2CCCCC2)nn(-c2ccc(Cl)cc2Cl)c1-c1ccc(Cl)cc1 [rimonabant, N-piperidino-5-(4-chlorophenyl)-1-(2,4-dichlorophenyl)-4-methylpyrazole-3-carboxamide]
Zucker fa/fa obese rats; 3 mg/kg/day per os, p<0.05
  mortality: 28%
Zucker fa/fa obese rats; 10 mg/kg/day per os, p<0.01
  mortality: 20%
Zucker fa/fa obese rats; 3 and 10 mg/kg/day per os
  survival of the Zucker fa/fa obese rats: very significantly prolongs
Zucker fa/fa obese rats; [1]
  creatinine clearance: partially restored
  increase in plasma creatinine level: decreased in a dose-dependent manner
  increase in plasma urea level: decreased in a dose-dependent manner
Zucker fa/fa obese rats; Zucker fa/fa obese rats, 12 months treatment, vs vehicle
  renal hypertrophy: significantly reduced
Zucker fa/fa obese rats; [2]
  contractility: remain unchanged
  heart rate: remain unchanged
  left ventricular pressure: remain unchanged
  mean arterial pressure: remain unchanged
Zucker fa/fa obese rats; chronic treatment, 3 and 10 mg/kg/day per os
  protienuria: significantly delays
Obese patients; obese patients
  body weight of obese patients: reduces
Obese patients
  food intake: acts on food intake in quantitative and qualitative terms
